These results are taken from patent US20220378706A1, “PHARMACEUTICAL COMPOSITION COMPRISING PDE9 INHIBITOR” (Eisai R&D Management Co., Ltd., priority 2017, published 2022).

One series concerns the target PDE9 (Homo sapiens, UniProt O76083). To be noted: WO2013/051369, WO2014/163147; cited from earlier work.
In the next series the test system is CSF cGMP. Description: Single dose clinical study Part B: CSF cGMP pharmacodynamics. The format is in vivo, human. To be noted: for CSF cGMP Amax Mean (SD) / CSF cGMP TAmax Median / CSF cGMP ΔAUAC(0-30 h) Mean (SD): healthy adults Part B, fasted. As to the method: After the Screening Period, subjects returned to the clinic on […] for Baseline procedures. […] Serial CSF sampling via the lumbar catheter commenced on Day 1, after an overnight fast. CSF samples were collected on Day 1 over a period of 3 hours predose. Subjects were then administered study drug, and serial CSF sampling for 30 hours postdose was performed to determine CSF cGMP and CSF Compound A concentrations. Blood samples for plasma Compound A PK were collected at the same time points as CSF sampling. Safety evaluations were also performed.
Serial CSF samples were collected from the lumbar catheter for analysis of concentrations of cyclic […] monophosphate (cGMP) at −3, −2, −1 hours, predose (0 hour), and postdose at 1, 2, 3, 4, 5, 6, 8, 10, 12, 14, 16, 18, 24, and 30 hours.
Plasma, urine and CSF concentrations of Compound A were measured using validated liquid chromatography mass spectrometry/mass spectrometry (LC MS/MS) assay methods. CSF concentrations of cGMP were measured using a validated LC-MS/MS assay method.
The primary PD measure was CSF cGMP. The following PD parameters were reported for CSF cGMP:
Plasma Compound A concentrations pooled from all cohorts of the study were subjected to population PK analysis using nonlinear mixed effects modelling. The effect of covariates, such as baseline demographics/characteristics (eg, body weight, age, gender, ethnicity, etc) on the PK of Compound A were explored. The individual posterior estimates of PK parameters were then used to generate individual PK profiles of Compound A, which were used in subsequent PK/PD analysis of the percent change from baseline in CSF cGMP concentrations.

Series [1] can be described thus: High precision QTcF analysis using Holter ECG recording. It counts as in vivo, human. To be noted: at the Cmax at the highest doses of 800 to 1200 mg, healthy subjects. How it is done: In addition, high precision QTcF analysis using Holter ECG recording was conducted in Parts A, C, and D during Day −1 and Day 1, to allow more rigorous assessments of possible changes in QTcF intervals. A central ECG laboratory was used to extract ECG recordings from the Holter device.

Sequence of PDE9 (O76083 whole entry): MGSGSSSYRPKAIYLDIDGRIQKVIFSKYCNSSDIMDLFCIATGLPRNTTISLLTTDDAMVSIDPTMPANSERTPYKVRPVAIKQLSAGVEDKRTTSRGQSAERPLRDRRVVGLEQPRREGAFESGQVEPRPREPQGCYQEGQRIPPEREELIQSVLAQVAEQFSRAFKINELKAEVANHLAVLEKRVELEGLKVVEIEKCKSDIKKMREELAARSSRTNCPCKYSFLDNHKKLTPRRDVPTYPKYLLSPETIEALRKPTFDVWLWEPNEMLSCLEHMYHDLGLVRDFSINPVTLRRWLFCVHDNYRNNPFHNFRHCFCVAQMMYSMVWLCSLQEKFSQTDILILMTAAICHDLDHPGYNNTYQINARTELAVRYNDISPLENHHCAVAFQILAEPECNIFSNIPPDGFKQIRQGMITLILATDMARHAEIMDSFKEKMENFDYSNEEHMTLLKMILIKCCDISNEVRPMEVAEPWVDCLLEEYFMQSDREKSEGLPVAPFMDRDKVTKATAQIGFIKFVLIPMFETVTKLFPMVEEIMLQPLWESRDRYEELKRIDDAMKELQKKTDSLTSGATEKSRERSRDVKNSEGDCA

In the case of `COc1ncc(C)c(-c2ccc3c(c2)[nH]c(=O)c2cnn([C@H]4CCOC4)c23)c1C` [Compound A, (S)-7-(2-methoxy-3,5-dimethylpyridin-4-yl)-1-(tetrahydrofuran-3-yl)-1H-pyrazolo[4,3-c]quin olin-4(5H)-one], at PDE9, the PDE9 inhibitory activity entry was “known to have a PDE9 inhibitory activity”. Also, the “sustained CSF cGMP increase from baseline predicted from PK/PD modeling” value in the series on CSF cGMP (100 mg administered to steady state) was “approximately 200%”. Further, the “CSF cGMP Amax Mean (SD)” value is 367 (92.6) % in the series on CSF cGMP (single oral 50 mg); 461 (86.3) % with CSF cGMP (single oral 75 mg); 293 (67.8) % with CSF cGMP (single oral 100 mg); 424 (127) % in the series with CSF cGMP (single oral 200 mg); 420 (123) % in the series on CSF cGMP (single oral 400 mg). The “CSF cGMP TAmax Median” value with CSF cGMP (single oral 50 mg) turned out to be 7.87 h; in the series on CSF cGMP (single oral 75 mg), 5.87 h; with CSF cGMP (single oral 100 mg), 5.87 h; with CSF cGMP (single oral 200 mg), 5.37 h; in the series on CSF cGMP (single oral 400 mg), 12.9 h. The “CSF cGMP ΔAUAC(0-30 h) Mean (SD)” value in the series with CSF cGMP (single oral 50 mg) is given as 117 (51.7) %; in the series with CSF cGMP (single oral 75 mg), 166 (9.61) %; in the series on CSF cGMP (single oral 100 mg) it was 87.0 (33.9) %; with CSF cGMP (single oral 200 mg) it was 176 (89.5) %; in the series with CSF cGMP (single oral 400 mg) it was 214 (82.3) %. For the same compound, the “upper 90% CI of the ΔΔQTcF” value in series [1] is recorded as “less than 10 ms”.
